Results on 1 compound are retold here after paper PMC12188320 (2025).

Each structure is given as a SMILES string.

In assay [1] the test system is NRAS (RNA, G4) UGUGGGAGGGGCGGGUCUGGGUGC
Description: CD melting. Particulars: Li+ (10 mM LiCl, 100 mM lithium cacodylate); pH 7; NRAS 5 µM, Ru-PIC 2 equivalents (10 µM); no stabilization observed.

Assay [2] has as its system CMYC (DNA, G4) TGGGGAGGGTGGGGAGGGTGGGGAAGG
Description: absorbance and luminescence titration. Conditions: K+ (10 mM potassium phosphate, 100 mM KCl); Ru-PIC 10 µM, CMYC 0-30 µM; no constant.

The subject of assay [3] is NRAS (RNA, G4) UGUGGGAGGGGCGGGUCUGGGUGC
Description: luminescence and absorbance titration. Particulars: K+ (10 mM potassium phosphate, 100 mM KCl); RNase-free buffer; Ru-PIC 2 µM, NRAS 0-6 µM; negligible spectral change; no constant.

In assay [4] the test system is CMYC (DNA, G4) TGGGGAGGGTGGGGAGGGTGGGGAAGG
Description: CD melting. Particulars: Li+ (10 mM LiCl, 100 mM lithium cacodylate; supplement: 90 mM LiCl, 10 mM cacodylate); pH 7; CMYC 5 µM, Ru-PIC 2 equivalents (10 µM).

What is called ΔTm is the shift of the melting midpoint relative to a reference. Regarding `O=C(O)c1ccc(-c2nc3c4cccnc4c4ncccc4c3[nH]2)cc1.[Ru+2].c1ccc(-c2ccccn2)nc1.c1ccc(-c2ccccn2)nc1`, the binding result is reported as “no” in assay [1], “yes” in assay [2] and “weak” in assay [3]. The shift in melting temperature (ΔTm) in assay [4] is 9.1 ± 0.3 °C.
